Measured values reported in US20130266636A1, “METHODS FOR BLOCKING CELL PROLIFERATION AND TREATING DISEASES AND CONDITIONS RESPONSIVE TO CELL GROWTH INHIBITION” (THE REGENTS OF THE UNIVERSITY OF CALIFORNIA, priority 2010, published 2013).
“Also recorded” adds a separate entry of the source.

Assays:
phospho-S338 CRAF = biological target: T1, phospho-S338 CRAF (Mus musculus, UniProt Q99N57); assay: Phospho-S338 CRAF staining in orthotopic R40P murine pancreatic cancer tissues; type: in vivo, mice; details: systemic KG5, 3 days
T1 construct: immunofluorescent staining of phospho-S338 CRAF in orthotopic pancreatic cancer tissues untreated or systemically treated with KG5; from tissue; host or cells: orthotopic R40P murine pancreatic tumours in mice
Source text: FIG. 5 illustrates the effect of KG5 on orthotopic R40P murine pancreatic tumor cells after three days, as further discussed in Example 1, below.
FIG. 5 illustrates an immunofluorescent staining of phospho-S338 CRAF in orthotopic pancreatic cancer tissues untreated or systemically treated with KG5 for 3 days.

[1] = system: human breast (T47D) carcinoma cell line; assay: Cell viability assay in T47D cells; type: cell-based
XPA-1 cells = assay: Cell cycle analysis, bright field and confocal microscopy of XPA-1 cells; type: cell-based, human
Method: FIG. 38. […] FIG. 38(a) Bright field images (scale bar, 20 μm), cell cycle analysis and confocal microscopy images (scale bar, 10 μm, laminB in red and DNA in blue) of XPA-1 cells treated for 20 hours with the allosteric RAF inhibitor KG5, the ATP-competitive inhibitor Sorafenib, the MEK inhibitor PD0325901, the control compound KG1 at 5 μM or paclitaxel at 200 nM. Cells were harvested after 20 hours and the cell cycle stage was determined by flow cytometry and confocal microscopy. White arrows indicate cells arrested at pro-metaphase. Scale bars, 10 μm. FIG. 38(b) Representative confocal microscopy images of untreated XPA-1 tumor cells undergoing mitosis (left image) and XPA-1 cell arrested with KG5 at pro-metaphase (right image). Cells were stained with α-tubulin in red and DNA in blue. Scale bar, 10 μm. FIG. 38(c) XPA-1 cells transfected with a vector control or active MEK were treated with 1 μM KG5 for 20 hours or left untreated and the G2/M population was quantified by flow cytometry. Error bars represent s.d. (n=3); * two tailed p value=0.00063 using a Mann Whitney U test. FIG. 38(d) Immunoblot analysis of XPA-1 cells untreated or treated with 1 μM KG5 for 18 hours. Data are representative of four independent experiments. […] Error bars represent s.d. (n=3); * two tailed p value=0.010 using a Mann Whitney U test. Inset, Immunoblot analysis of HCT-116 cells untreated or treated with 1 μM KG5 for 18 hours.
FIG. 39. […] FIG. 39 graphically illustrates cell cycle analysis of XPA-1 cells treated with the allosteric RAF inhibitor KG5, the microtubule stabilizer paclitaxel, or the ATP-competitive RAF inhibitors sorafenib, L-779450, GW 5074, and ZM-336372. Cells were harvested after 6, 18, 24, 48 and 72 hours and the percentages of cells in G2/M and SubG1 were determined by flow cytometry. Data are representative of three independent experiments.
Cell cycle analysis was performed by flow cytometry following propidium iodide staining. Briefly, cells were harvested, fixed with ice cold methanol, treated for 45 min with 10 μg/ml of RNase and resuspended in PBS containing 10 μg/ml of PI, and analyzed by flow cytometry. Cell cycle analysis was performed in cells treated for 18 hours with the allosteric RAF inhibitor KG5, the ATP-competitive RAF inhibitors: sorafenib, L-779450, GW5074, and ZM-336372, the MEK inhibitor (PD0325901) at […] concentration or paclitaxel at 100 nM.

[2] = system: p21-activated kinase (PAK); details: inferred from MEK S298; cited from earlier work
[3] = system: human breast (MDA-MB-231) carcinoma cell line; assay: Cell viability assay in MDA-MB-231 cells; type: cell-based

CSc1nc(N)cc(Oc2ccc(-c3nnc(Nc4cccc(C(F)(F)F)c4)[nH]3)cc2)n1 [KG5]
phospho-S338 CRAF in orthotopic pancreatic cancer tissues (phospho-S338 CRAF): inhibits serine 338 phosphorylation of CRAF
cell viability ([1]; T47D): decrease cell viability
EC50 ([1]; T47D breast cancer cells): approach picomolar (pM) EC50s
rescue of KG5 effect on cell proliferation by ectopic active MEK (G2/M population) (XPA-1 cells; XPA-1 cells transfected with active MEK, 1 μM KG5, 20 hours): failed to rescue
arrest at pro-metaphase (confocal microscopy) (XPA-1 cells; XPA-1 cells, 20 hours): arrests cells at pro-metaphase
cell cycle arrest in G2/M (flow cytometry) (XPA-1 cells; XPA-1 cells, 20 hours): arrested in G2/M; also recorded: arrests cells in G2/M; also recorded: induces a G2/M arrest followed by cell death
cell appearance and mitotic function (bright field images) (XPA-1 cells; XPA-1 cells, 20 hours, same concentration (5 μM, FIG. 38a)): look arrested in mitosis; also recorded: rounded and arrested in mitosis
PAK activity [2]: does not directly inhibit PAK activity
cell viability ([3]; MDA-MB-231): decrease cell viability
EC50 ([3]; MDA-MB-231 breast cancer cell viability assays): approach picomolar (pM) EC50s
